In article PMC6219560, “An Electroencephalography Bioassay for Preclinical Testing of Analgesic Efficacy” (Scientific Reports, 2018):
Like-named read-outs stand apart in the source and are kept apart here.

How the values were obtained:
rats with CCI = tested on: rats with CCI; design: method as in PMID 23489258; details: single doses (i.p.), rats with CCI ref 38; cited from earlier work
[1] = cited from earlier work
[2] = Pharmacokinetics (PK) study: drug plasma concentration in rats by LC-MS/MS; assay type: in vivo, rat; details: for concentration at 30 min: geomean (% coefficient of variation), n = 3
Method: Rats (n = 3 per group) were intraperitoneally treated either with 3 or 100 mg/kg of pregabalin, or orally either with 1 or 10 mg/kg of EMA401, or 80 mg/kg of minocycline. At 0.5, 1, and 2 hours after treatment, approximately 150 µL of blood was collected from the jugular vein using a heparinized syringe with a needle. Blood samples were then centrifuged at 1700 g at 4 °C for 10 minutes. Plasma samples were then separated and stored at −20 °C until analysis. Five or 10 μL of plasma samples were diluted with 300 μL of deproteinization solution containing internal standards (5 nM buspirone, 20 nM tolbutamide, 10 nM reserpine in acetonitorile/methanol = 9: 1) and shaken for 5 minutes at room temperature, and centrifuged at 1000 g for 15 minutes. Then, the supernatant was analyzed by LC-MS/MS (Xevo TQ-S Tandem Quadrupole Mass Spectrometry, Waters) for quantification of pregabalin. Data analysis were performed with MassLynx Mass Spectometry Software and TargetLynx Application manager (Waters).

[3] = tested on: rat model of neuropathic pain (CCI); assay: Thermal hyperalgesia: paw withdrawal latency (PWL) in rats with CCI; assay type: in vivo
From the text: The sciatic nerve was exposed unilaterally after skin incision at the mid-thigh level and blunt dissection of the biceps under deep anesthesia (isoflurane, 3%). Four chromic gut ligatures were tied loosely around the nerve 1 mm apart, and the overlying muscles and skin were closed in layers with 4–0 Ethilon sutures. A minor modification was introduced, consisting of loose ligatures, to minimize nerve damage and deafferentation. Rats with this slightly modified CCI procedure gradually develop typical signs of sensory hypersensitivity associated with neuropathic pain, such as guarding the affected hind paw and thermal hypersensitivity. […] For CCI sham surgery, the sciatic nerve was similarly exposed but not ligated.
EEG recording was performed first for ~10 min during resting states (no stimulation). The rat was then untethered from the EEG leads and placed in the behavioral apparatus for 15 min acclimation, followed by 5 min PWL testing. Thermal sensitivity of the hindpaw was assessed by measuring the latency of the withdrawal reflex in response to a radiant heat source (Paw withdrawal stimulator, Department of Anesthesiology, University of California, SD). A radiant heat source (4.7 A) was applied to the plantar surface of the hind paw. Paw withdrawal latencies (PWL) in response to 4 thermal stimulations were averaged for each paw. Stimulations to each paw were separated by at least 2 minutes intervals.
(§1) Values regarding theta power and PWL are reported as mean ± SEM and then converted to ratio relative to naive or CCI values for standardized representation of the data. One sample t-test was used for comparison between naïve and CCI, and paired t-test was used for comparison between CCI and after treatment in the same animals, respectively. Values regarding drug plasma concentration are reported as geomean (% of covariance) or range. Correlation analysis was used to compare EEG with PWL values. A P value < 0.05 was considered statistically significant and denoted by asterisk (*) in figures.

[4] = tested on: rat model of neuropathic pain (CCI); assay: EEG theta power over primary somatosensory cortex in awake rats with CCI; assay type: in vivo; details: for Longitudinal effects on theta power and PWL: single dose 10 mg/kg, n=4
Method: These procedures were performed under anesthesia (isoflurane, 2–3.5%). The head was fixed in a stereotaxic apparatus, and skull was exposed after a small skin incision. A stainless steel screw electrode (0–80 ga 1/8 inch, impedance = 0.6 Ω; component Supply Company, Fort Meade, FL) was placed over intact skull (i.e. epicranially) corresponding to primary somatosensory cortex or S1 contralateral to nerve injury (Bregma −2, 2 mm lateral). Minimal craniotomies were used to place 3 stabilization screws (corresponding to Bregma +1.4, 2 mm bilaterally and Bregma −4.8 mm, midline). The EEG screw was threaded with a silver wire and attached to a female miniature pin connector (A&M Systems, Sequim, WA). All screws were anchored to the skull chronically using dental acrylic (Fig. 1B). Signal reference was provided by a silver wire permanently threaded to the skin at the back of the neck.
The sciatic nerve was exposed unilaterally after skin incision at the mid-thigh level and blunt dissection of the biceps under deep anesthesia (isoflurane, 3%). Four chromic gut ligatures were tied loosely around the nerve 1 mm apart, and the overlying muscles and skin were closed in layers with 4–0 Ethilon sutures. A minor modification was introduced, consisting of loose ligatures, to minimize nerve damage and deafferentation. […] For CCI sham surgery, the sciatic nerve was similarly exposed but not ligated.
Pin connectors from EEG electrode was tethered to preamplifier headstage leading to a multichannel amplifier (iso-DAM8A; WPI Inc, Sarasota, FL). EEG waveforms were amplified (DAM80; World Precision Instruments, Sarasota, FL). […] Rats were allowed to move freely during EEG recording in Plexiglas chambers. After 15 minutes of acclimation, EEG recording was performed. Each EEG recording session was 3 to 5 minutes per animal. […] Only data during awake resting periods (defined as alertness but idle with no locomotor behavior) were further analyzed. Potentials generated due to vigorous myogenic activity (such as scratching) were excluded from analysis. These artifacts can be easily identified on the basis of monitoring the animal’s behavior, voltage amplitude, and spectral frequency typically >30 Hz, and they were further corroborated using an automated artifact detection algorithm recently developed in our laboratory (Supplemental Fig. 3)[59].
Fast Fourier transform was used to convert EEG waveform from the time domain to the frequency domain. Power values were generated in 27 frequency bins between 3 and 30 Hz. Awake resting periods were selected and Fast Fourier transformed, then average PSD was calculated. Mean PSD theta was computed between 4 and 8 Hz (Fig. 1C). Each ‘period’ was a continuous interval between 7 and 20 seconds, and 3–5 periods were averaged to obtain one value for mean theta per condition.
as §1

pain patients = details: equivalent human dose High (rat 30 mg/kg i.p.); cited from earlier work
[5] = cited from earlier work; for Plasma concentration in rat: mean (% coefficient of variation) ref 29; for Plasma concentration in rat (% covariance): mean ref Lau et al.
[6] = 10 mg/kg p.o., single administration, d14 after CCI, 0.5 hr, n = 6
[7] = 80 mg/kg p.o., single administration at d14 after CCI, n = 5

Cc1cc(Cn2cnc3c2CC(C(=O)O)N(C(=O)C(c2ccccc2)c2ccccc2)C3)ccc1N(C)C (stereo not shown) [EMA200]
Anti-allodynic effects (rats with CCI): dose-dependent anti-allodynic effects

COc1ccc2c(c1OCc1ccccc1)C[C@@H](C(=O)O)N(C(=O)C(c1ccccc1)c1ccccc1)C2 [EMA400]
Anti-allodynic effects (rats with CCI): dose-dependent anti-allodynic effects

COc1ccc2c(c1OCc1ccccc1)C[C@@H](C(=O)O)N(C(=O)C(c1ccccc1)c1ccccc1)C2 [EMA401]
Corresponding plasma concentration in human: Cmax ([1]; 200 mg/day, mean (% covariance) ref Rice et al.): Therapeutic dose Similar to Cmax of 200 mg/day: 1.01 (65) mg/mL*b [Rice et al.] | Plasma concentration, clinical data ([1]; human ref 18): 1.01 (65) μg/mL | Distribution ([2]; rat, in vivo): peripherally restricted | Exposure after daily administration ([2]; rat, in vivo, po): not cumulative | PWL relative to CCI ([3]; 10 mg/kg p.o. daily starting d7 after CCI, day 7): 1.60 ± 0.19 | PWL relative to CCI ([3]; 10 mg/kg p.o. daily starting d7 after CCI, day 11): 2.13 ± 0.28 | PWL relative to CCI ([3]; 10 mg/kg p.o. daily starting d7 after CCI, day 14): 2.27 ± 0.30 | PWL relative to CCI [3, 6]: 1.26 ± 0.11 | Theta power relative to CCI ([4]; 10 mg/kg p.o. daily starting d7 after CCI, day 7, n = 6): 0.76 ± 0.07 | Theta power relative to CCI ([4]; 10 mg/kg p.o. daily starting d7 after CCI, day 11, n = 6): 0.77 ± 0.08 | Theta power relative to CCI ([4]; 10 mg/kg p.o. daily starting d7 after CCI, day 14, n = 6): 0.87 ± 0.12 | Theta power relative to CCI [4, 6]: 0.71 ± 0.13 | Longitudinal effects on theta power and PWL ([4]; CCI d7, 30 min after administration): analgesic effects | Longitudinal effects on theta power and PWL ([4]; CCI d7, 2 hours after administration): tendency for reversal

CN(C)c1ccc(O)c2c1C[C@H]1C[C@H]3[C@H](N(C)C)C(O)=C(C(N)=O)C(=O)[C@@]3(O)C(O)=C1C2=O [Minocycline, minocycline]
Corresponding plasma concentration in human: clinical dose ([1]; 200 mg/day, range ref Sumitani et al.): Therapeutic dose (inconclusive) Higher than clinical (200 mg/day) dose: 3.19–4.59 mg/mL*a [Sumitani et al.] | PWL relative to CCI ([3]; 80 mg/kg p.o. daily treatment starting d7 CCI, day 7): 0.91 ± 0.05 | PWL relative to CCI ([3]; 80 mg/kg p.o. daily treatment starting d7 CCI, day 10): 1.00 ± 0.08 | PWL relative to CCI ([3]; 80 mg/kg p.o. daily treatment starting d7 CCI, day 14): 0.94 ± 0.04 | PWL relative to CCI [3, 7]: 1.08 ± 0.10 | Theta power relative to CCI ([4]; 80 mg/kg p.o. daily starting d7 CCI, day 11, n = 7): 0.95 ± 0.11 | Theta power relative to CCI ([4]; 80 mg/kg p.o. daily starting d7 CCI, day 14, n = 5): 1.37 ± 0.45 | Theta power relative to CCI ([4]; 80 mg/kg p.o., d7 after CCI (first of daily doses), n = 7): 0.71 ± 0.06 | Theta power relative to CCI [4, 7]: 0.96 ± 0.13

CC(C)C[C@H](CN)CC(=O)O [Pregabalin, pregabalin]
Clinical efficacy (VAS) (pain patients): Side effects | Cmax in humans ([1]; 150 mg/day ref 31): 3.18 (21) μg/mL | Corresponding plasma concentration in human: Cmax ([1]; 150 mg/day ref Chew et al.): Sub-therapeutic dose Similar to Cmax of 150 mg/day: 3.18 (21) mg/mL [Chew et al.] | Cmax in humans ([1]; 300 mg/day ref 31): 6.39 (20) μg/mL | Cmax in humans ([1]; 600 mg/day ref 31): 11.4 (17) μg/mL | Corresponding plasma concentration in human: steady state level ([1]; 600 mg/day, range ref Dworkin et al.): Supra-therapeutic dose Slightly higher than steady state level of 600 mg/day: 0.244–18.6 mg/mL*a [Dworkin et al.] | Steady state level in humans ([1]; 600 mg/day, represented as range ref 33): 0.244 to 18.6 µg/mL | Linearity of plasma concentration at 30 min ([2]; doses of 3 and 100 mg/kg i.p., compared with previous report (10 and 30 mg/kg)): good linearity | concentration at 30 min ([2]; rat, in vivo, 3 mg/kg i.p.): 3.29 µg/mL | concentration at 30 min ([2]; rat, in vivo, 100 mg/kg i.p.): 99.3 µg/mL | Plasma concentration in rat ([5]; 10 mg/kg i.p., 30 min): 11.3 (4.9) μg/mL | Plasma concentration in rat (% covariance) ([5]; 10 mg/kg, observation time 30 min): 11.3 (4.9)*b mg/mL | Plasma concentration in rat ([5]; 30 mg/kg i.p.): 33.0 (5.4) μg/mL | Plasma concentration in rat (% covariance) ([5]; 30 mg/kg): 33.0 (5.4)*b mg/mL | PWL relative to CCI ([3]; 3 mg/kg i.p., single dose, d14 after CCI, 0.5 h, mean ± SEM ratio): 1.42 ± 0.10 | PWL relative to CCI ([3]; 10 mg/kg i.p., single dose, d14 after CCI, 0.5 h, mean ± SEM ratio): 1.54 ± 0.08 | PWL relative to CCI ([3]; 30 mg/kg i.p., single dose, d14 after CCI, 0.5 h, mean ± SEM ratio): 1.47 ± 0.14 | Theta power relative to CCI ([4]; 3 mg/kg i.p., single dose, d14 after CCI, 0.5 h, mean ± SEM ratio, n = 7): 0.91 ± 0.11 | Theta power relative to CCI ([4]; 10 mg/kg i.p., single dose, d14 after CCI, 0.5 h, mean ± SEM ratio, n = 7): 0.83 ± 0.12 | EEG efficacy (θ power) ([4]; 30 mg/kg (i.p.), pain phase Late): Side effects | Theta power relative to CCI ([4]; 30 mg/kg i.p., single dose, d14 after CCI, 0.5 h, mean ± SEM ratio, n = 7): 1.24 ± 0.29
